pIC50: −log10 of the molar value.
Target: T1, human V2 vasopressin receptor (Homo sapiens, UniProt P30518)
T1 construct: expressed in transfected cells; host or cells: mouse fibroblast cell line LV-2
Assay: Binding to Membranes of Mouse Fibroblast Cell Line (LV-2) Transfected with the cDNA Expressing the Human V2 Vasopressin Receptor
Settings: LV-2 cells
Description: Flasks of 175 ml capacity, containing attached cells grown to confluence, are cleared of culture medium by aspiration. The flasks containing the attached cells are rinsed with 2×5 ml of phosphate buffered saline (PBS) and the liquid aspirated off each time. Finally, 5 ml of an enzyme free dissociation Hank's based solution (Specialty Media, Inc., Lafayette, N.J.) is added and the flasks are left undisturbed for 2 min. The content of all flasks is poured into a centrifuge tube and the cells pelleted at 300×g for 15 min. The Hank's based solution is aspirated off and the cells homogenized with a polytron at setting #6 for 10 sec in 10.0 mM Tris.HCl buffer, pH 7.4 containing 0.25M sucrose and 1.0 mM EDTA. The homogenate is centrifuged at 1500×g for 10 min to remove ghost membranes. The supernatant fluid is centrifuged at 100,000×g for 60 min to pellet the receptor protein. Upon completion, the pellet is resuspended in a small volume of 50.0 mM Tris.HCl buffer, pH 7.4. The protein content is determined by the Lowry method and the receptor membranes are suspended in 50.0 mM Tris.HCl buffer containing 0.1 mM phenylmethylsulfonylfluoride (PMSF) and 0.2% bovine serum albumin (BSA) to give 2.5 mg receptor protein per ml of suspension.
For binding experiments, the following is added in μl volume to wells of a 96 well format of a microtiter plate: 100.0 μl of 100.0 mM Tris.HCl buffer containing 0.2% heat inactivated BSA, 10.0 mM MgCl2 and a mixture of protease inhibitors: leupeptin, 1.0 mg %; aprotinin, 1.0 mg %; 1,10-phenanthroline, 2.0 mg %; trypsin inhibitor, 10.0 mg % and 0.1 mM PMSF., 20.0 μl of [^3 H] Arginine^8, vasopressin (S.A. 75.0 Ci/mmole) at 0.8 nM and the reaction initiated by the addition of 80.0 μl of tissue membranes ([…]).
The plates are left undisturbed on the bench top for 120 min to reach equilibrium. Non specific binding is assessed in the presence of 1.0 μM of unlabeled ligand, added in 20 μl volume. For test compounds, these are solubilized in 50% dimethylsulfoxide (DMSO) and added in 20.0 μl volume to a final incubation volume of 200 μl. Upon completion of binding, the content of each well is filtered off, using a Brandel® cell Harvester (Gaithersburg, Md.). The radioactivity trapped on the filter disk by the ligand-receptor complex is assessed by liquid scintillation counting in a Packard LS Counter, with an efficiency of 65% for tritium.

T1 sequence (P30518 whole entry): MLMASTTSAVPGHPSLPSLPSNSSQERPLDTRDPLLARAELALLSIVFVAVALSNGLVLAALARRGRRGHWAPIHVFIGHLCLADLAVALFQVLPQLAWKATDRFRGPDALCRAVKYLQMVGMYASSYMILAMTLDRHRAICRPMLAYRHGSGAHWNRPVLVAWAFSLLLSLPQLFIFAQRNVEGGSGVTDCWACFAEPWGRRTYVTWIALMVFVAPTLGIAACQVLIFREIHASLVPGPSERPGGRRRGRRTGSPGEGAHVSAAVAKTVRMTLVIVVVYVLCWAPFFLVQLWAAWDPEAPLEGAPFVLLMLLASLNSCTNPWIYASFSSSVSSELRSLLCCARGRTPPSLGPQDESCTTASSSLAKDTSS

pIC50 | Structure (SMILES)
7.80 | COc1cc(C(=O)N2Cc3ccccc3Cc3ccccc32)ccc1NC(=O)c1cc(F)ccc1C [Example 261, N-[4-[(6,11-Dihydro-5H-dibenz[b,e]azepin-5-yl)-carbonyl]-2-methoxyphenyl]-2-methyl-5-fluorobenzamide]
6.60 | Cc1c(F)cccc1C(=O)Nc1ccc(C(=O)N2Cc3ccccc3Cc3ccccc32)cc1Cl [Example 262, N-[4-[(6,11-Dihydro-5H-dibenz[b,e]azepin-5-yl)-carbonyl]-2-chlorophenyl]-2-methyl-3-fluorobenzamide]
7.33 | COc1cc(C(=O)N2Cc3ccccc3Cc3ccccc32)ccc1NC(=O)c1ccc(Cl)cc1Cl [Example 263, N-[4-[(6,11-Dihydro-5H-dibenz[b,e]azepin-5-yl)-carbonyl]-2-methoxyphenyl]-2,4-dichlorobenzamide]
7.70 | COc1cc(C(=O)N2Cc3ccccc3Cc3ccccc32)ccc1NC(=O)c1ccccc1C [Example 257, N-[4-[(6,11-Dihydro-5H-dibenz[b,e]azepin-5-yl)-carbonyl]-2-methoxyphenyl]-2-methylbenzamide]

Further lines, the molecule ahead of its results:

Structure (SMILES) | pIC50
Cc1nc2c(s1)CCN(C(=O)c1ccc(NC(=O)c3ccc(Cl)cc3Cl)cc1)c1ccccc1-2 [Example 455, N-[4-(4,5-Dihydro-2-methyl-6H-thiazolo[5,4-d][1]-benzazepin-6-yl)carbonyl1phenyl]-2,4-dichlorobenzamide] | 7.00
Cc1ccc(F)cc1C(=O)Nc1ccc(C(=O)N2CCc3c[nH]nc3-c3ccccc32)c(Cl)c1 [Example 581] | 8.66
Cc1nc2c(s1)CCN(C(=O)c1ccc(NC(=O)c3cc(F)ccc3C)cc1)c1ccccc1-2 [Example 534] | 7.14

Source: US5834461A, “Tricyclic benzazepine vasopressin antagonists” (American Cyanamid Company, priority 1997, dated 1998)
